Series [1] is described as follows: Lipophilicity, log D of the compound. Type of series: physicochemical. The settings on record: octanol/water.
Series [2] in a line: Dissociation constant, pKa of the compound. Type of series: physicochemical.
Series [3] has as its target T1, Alpha-1A adrenergic receptor (Homo sapiens, UniProt P35348).
T1 sequence (P35348 whole entry): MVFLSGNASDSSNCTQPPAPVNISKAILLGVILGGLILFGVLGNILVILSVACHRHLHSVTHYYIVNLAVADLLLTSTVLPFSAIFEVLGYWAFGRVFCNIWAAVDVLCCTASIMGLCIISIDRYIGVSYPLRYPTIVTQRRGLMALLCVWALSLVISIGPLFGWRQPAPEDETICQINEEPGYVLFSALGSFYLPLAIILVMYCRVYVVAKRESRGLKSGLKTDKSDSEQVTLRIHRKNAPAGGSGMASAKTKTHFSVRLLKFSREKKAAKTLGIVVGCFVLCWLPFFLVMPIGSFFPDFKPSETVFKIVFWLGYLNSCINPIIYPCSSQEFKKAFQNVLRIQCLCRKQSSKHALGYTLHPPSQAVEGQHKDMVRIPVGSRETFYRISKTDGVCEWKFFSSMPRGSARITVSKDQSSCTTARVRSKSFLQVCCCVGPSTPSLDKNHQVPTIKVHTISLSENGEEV
The experiment in a line: Displacement of [125I]HEAT from adrenergic alpha1A receptor. A general note: Displacement assays read how much labelled ligand stays bound in the presence of the test substance.

Series [4] has as its target T2, Alpha-2A adrenergic receptor (Homo sapiens, UniProt P08913).
T2 sequence (P08913 whole entry): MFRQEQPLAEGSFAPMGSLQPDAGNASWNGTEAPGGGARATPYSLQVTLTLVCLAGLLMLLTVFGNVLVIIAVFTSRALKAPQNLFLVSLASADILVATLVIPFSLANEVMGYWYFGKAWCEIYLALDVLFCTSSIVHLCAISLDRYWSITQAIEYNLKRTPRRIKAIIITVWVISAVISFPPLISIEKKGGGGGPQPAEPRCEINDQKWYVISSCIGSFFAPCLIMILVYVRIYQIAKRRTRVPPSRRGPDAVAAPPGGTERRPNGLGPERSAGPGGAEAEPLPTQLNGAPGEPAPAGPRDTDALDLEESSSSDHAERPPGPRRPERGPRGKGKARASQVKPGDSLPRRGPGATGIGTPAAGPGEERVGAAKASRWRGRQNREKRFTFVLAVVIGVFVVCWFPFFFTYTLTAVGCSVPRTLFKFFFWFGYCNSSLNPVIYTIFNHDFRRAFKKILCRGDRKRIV
The series is described as follows: Displacement of [125I]HEAT from adrenergic alpha2A receptor.

Series [5] addresses T3, Alpha-2C adrenergic receptor (Homo sapiens, UniProt P18825).
T3 sequence (P18825 whole entry): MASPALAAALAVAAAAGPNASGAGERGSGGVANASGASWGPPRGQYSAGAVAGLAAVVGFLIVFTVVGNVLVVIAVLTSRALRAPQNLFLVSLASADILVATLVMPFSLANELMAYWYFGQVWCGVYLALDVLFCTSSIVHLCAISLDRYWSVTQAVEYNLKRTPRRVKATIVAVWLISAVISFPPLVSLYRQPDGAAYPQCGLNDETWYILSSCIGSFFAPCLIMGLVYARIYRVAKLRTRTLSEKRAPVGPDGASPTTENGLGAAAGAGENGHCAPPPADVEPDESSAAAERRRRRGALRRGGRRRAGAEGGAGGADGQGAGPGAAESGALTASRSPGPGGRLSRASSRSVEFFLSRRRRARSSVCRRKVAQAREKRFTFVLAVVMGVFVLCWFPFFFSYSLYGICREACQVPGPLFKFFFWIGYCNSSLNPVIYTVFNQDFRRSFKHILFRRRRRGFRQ
The series is described as follows: Displacement of [125I]HEAT from adrenergic Alpha-2C receptor.

The target of series [6] is T4, Alpha-2B adrenergic receptor (Homo sapiens, UniProt P18089).
T4 sequence (P18089 whole entry): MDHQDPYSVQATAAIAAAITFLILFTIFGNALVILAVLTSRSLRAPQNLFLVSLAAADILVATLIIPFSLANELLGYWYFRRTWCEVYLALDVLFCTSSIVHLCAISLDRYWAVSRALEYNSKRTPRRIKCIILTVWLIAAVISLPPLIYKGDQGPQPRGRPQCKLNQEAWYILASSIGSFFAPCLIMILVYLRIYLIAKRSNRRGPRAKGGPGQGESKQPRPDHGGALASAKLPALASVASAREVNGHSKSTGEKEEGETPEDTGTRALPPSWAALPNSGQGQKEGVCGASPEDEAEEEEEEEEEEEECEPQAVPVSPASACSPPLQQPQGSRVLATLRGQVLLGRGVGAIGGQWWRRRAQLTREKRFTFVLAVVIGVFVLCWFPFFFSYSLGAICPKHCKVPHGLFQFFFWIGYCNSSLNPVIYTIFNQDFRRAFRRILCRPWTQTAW
The series is described as follows: Displacement of [125I]HEAT from adrenergic alpha2B receptor.

A further series deals with T5, D(4) dopamine receptor (Homo sapiens, UniProt P21917).
T5 sequence (P21917 whole entry): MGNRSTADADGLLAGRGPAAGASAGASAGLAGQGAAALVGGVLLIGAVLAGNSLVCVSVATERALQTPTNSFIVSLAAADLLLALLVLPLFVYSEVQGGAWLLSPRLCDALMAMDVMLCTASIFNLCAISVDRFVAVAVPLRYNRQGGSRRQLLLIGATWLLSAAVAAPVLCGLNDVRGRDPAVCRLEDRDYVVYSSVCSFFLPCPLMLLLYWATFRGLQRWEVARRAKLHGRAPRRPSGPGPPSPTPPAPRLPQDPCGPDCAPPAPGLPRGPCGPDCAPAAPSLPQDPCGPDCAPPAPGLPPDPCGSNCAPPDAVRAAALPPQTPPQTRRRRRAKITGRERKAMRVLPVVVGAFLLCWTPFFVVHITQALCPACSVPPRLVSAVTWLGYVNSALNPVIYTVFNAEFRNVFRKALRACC
The series is described as follows: Displacement of [3H]N-methylspiperone from dopamine D4 receptor.

For the next series, the target named is Histamine H1 receptor (Homo sapiens, UniProt P35367). The series is described as follows: Displacement of [3H]pyrilamine from human histamine H1 receptor.
The target in another series is Histamine H2 receptor (Homo sapiens, UniProt P25021). The experiment in a line: Displacement of [3H]tiotidine from human histamine H2 receptor.
Another series has as its target Histamine H3 receptor (Homo sapiens, UniProt Q9Y5N1). The experiment in a line: Displacement of [3H]alpha-methylhistamine from human histamine H3 receptor.
Another series addresses Mu-type opioid receptor (Homo sapiens, UniProt P35372). The series is described as follows: Displacement of [3H]DAMGO from mu opioid receptor.
In series [7] the target is Sigma non-opioid intracellular receptor 1 (Rattus norvegicus, UniProt Q9R0C9). The series is described as follows: Displacement of [3H]Pentazocine from rat sigma 1 receptor in rat PC12 cells. Type of series: cell-based, PC-12.
The nature of series [8]: Displacement of [3H]DTG from rat sigma 2 receptor in rat PC12 cells. Type of series: cell-based. The settings on record: pc-12.
Series [9] has as its target Sodium-dependent serotonin transporter (Homo sapiens, UniProt P31645). The experiment in a line: Displacement of [3H]citalopram from human SERT.

SMILES strings stand for the structures.

Sigma non-opioid intracellular receptor 1, sequence (Q9R0C9 whole entry): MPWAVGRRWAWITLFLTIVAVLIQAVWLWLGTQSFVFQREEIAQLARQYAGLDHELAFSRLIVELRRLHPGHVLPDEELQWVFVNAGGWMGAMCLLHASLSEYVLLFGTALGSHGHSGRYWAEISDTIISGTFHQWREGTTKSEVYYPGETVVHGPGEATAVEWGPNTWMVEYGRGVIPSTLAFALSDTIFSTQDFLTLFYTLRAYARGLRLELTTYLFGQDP
Histamine H1 receptor, sequence (P35367 whole entry): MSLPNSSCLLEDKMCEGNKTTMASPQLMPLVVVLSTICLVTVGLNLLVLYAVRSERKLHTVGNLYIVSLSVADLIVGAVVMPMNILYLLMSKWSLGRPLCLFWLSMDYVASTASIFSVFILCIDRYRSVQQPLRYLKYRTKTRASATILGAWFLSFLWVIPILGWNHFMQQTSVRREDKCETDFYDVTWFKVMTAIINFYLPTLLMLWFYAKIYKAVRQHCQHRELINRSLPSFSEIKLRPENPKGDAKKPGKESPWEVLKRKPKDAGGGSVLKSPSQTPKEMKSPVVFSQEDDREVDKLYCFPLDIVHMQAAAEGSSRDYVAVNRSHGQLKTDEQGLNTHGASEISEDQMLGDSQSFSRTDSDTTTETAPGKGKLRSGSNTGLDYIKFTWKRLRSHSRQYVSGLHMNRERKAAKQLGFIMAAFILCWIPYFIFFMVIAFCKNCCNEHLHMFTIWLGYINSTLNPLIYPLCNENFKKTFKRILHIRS
Sodium-dependent serotonin transporter, sequence (P31645 whole entry): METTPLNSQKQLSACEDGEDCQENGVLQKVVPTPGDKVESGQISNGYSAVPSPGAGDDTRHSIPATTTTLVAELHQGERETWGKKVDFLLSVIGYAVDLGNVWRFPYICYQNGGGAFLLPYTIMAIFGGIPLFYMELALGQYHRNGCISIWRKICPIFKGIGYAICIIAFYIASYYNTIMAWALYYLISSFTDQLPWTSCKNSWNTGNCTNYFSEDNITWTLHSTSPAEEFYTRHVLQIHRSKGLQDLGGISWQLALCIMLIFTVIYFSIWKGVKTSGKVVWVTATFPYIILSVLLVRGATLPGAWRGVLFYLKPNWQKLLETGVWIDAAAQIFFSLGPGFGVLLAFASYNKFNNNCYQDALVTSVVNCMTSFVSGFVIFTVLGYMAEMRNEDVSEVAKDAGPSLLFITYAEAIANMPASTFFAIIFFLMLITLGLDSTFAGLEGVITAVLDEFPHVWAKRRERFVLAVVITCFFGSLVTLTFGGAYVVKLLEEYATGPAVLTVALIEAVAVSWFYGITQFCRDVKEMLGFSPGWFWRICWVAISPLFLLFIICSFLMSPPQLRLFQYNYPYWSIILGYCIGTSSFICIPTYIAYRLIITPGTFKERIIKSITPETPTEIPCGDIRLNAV
Mu-type opioid receptor, sequence (P35372 whole entry): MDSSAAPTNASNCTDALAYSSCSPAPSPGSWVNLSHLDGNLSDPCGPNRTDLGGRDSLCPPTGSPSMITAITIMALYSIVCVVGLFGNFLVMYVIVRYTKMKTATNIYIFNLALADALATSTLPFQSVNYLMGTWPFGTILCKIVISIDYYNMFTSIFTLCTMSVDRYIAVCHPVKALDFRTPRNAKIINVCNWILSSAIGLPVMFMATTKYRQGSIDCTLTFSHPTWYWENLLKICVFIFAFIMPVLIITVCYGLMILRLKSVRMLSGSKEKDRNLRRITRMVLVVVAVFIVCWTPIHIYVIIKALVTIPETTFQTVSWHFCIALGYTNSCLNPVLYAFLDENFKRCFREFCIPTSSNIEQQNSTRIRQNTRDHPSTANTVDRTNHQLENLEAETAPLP
Histamine H3 receptor, sequence (Q9Y5N1 whole entry): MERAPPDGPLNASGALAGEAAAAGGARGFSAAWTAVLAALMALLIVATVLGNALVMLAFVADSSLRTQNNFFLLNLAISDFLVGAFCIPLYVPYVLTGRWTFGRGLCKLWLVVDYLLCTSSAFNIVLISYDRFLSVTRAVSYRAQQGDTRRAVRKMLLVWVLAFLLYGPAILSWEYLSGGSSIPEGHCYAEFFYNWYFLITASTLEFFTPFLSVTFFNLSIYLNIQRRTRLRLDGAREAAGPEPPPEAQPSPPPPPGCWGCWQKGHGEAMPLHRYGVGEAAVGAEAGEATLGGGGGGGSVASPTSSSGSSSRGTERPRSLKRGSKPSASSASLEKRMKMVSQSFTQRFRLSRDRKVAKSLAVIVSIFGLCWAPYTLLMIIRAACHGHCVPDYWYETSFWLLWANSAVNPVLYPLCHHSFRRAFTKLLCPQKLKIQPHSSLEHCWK
Histamine H2 receptor, sequence (P25021 whole entry): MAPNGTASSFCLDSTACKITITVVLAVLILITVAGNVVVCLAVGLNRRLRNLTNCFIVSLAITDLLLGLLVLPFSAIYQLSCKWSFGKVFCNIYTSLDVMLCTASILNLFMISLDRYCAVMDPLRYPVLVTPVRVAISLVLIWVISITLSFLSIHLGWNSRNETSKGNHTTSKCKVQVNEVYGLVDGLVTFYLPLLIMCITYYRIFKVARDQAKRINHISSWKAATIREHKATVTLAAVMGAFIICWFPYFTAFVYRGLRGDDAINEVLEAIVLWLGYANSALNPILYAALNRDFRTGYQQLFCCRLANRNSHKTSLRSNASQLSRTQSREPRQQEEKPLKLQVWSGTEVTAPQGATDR

By logD is commonly meant the decadic logarithm of the distribution of all forms, ionised or not, between an organic phase and buffer at a given pH. Broadly, the pKa is the negative logarithm of the acid dissociation constant. As to `[11CH3]NC(=O)C(CCN1CCC(O)(c2ccc(Cl)cc2)CC1)(c1ccccc1)c1ccccc1`, the pH-dependent lipophilicity (logD) in series [1] was 2.6. Also, the pKa in [2] (read-out: pKa) turned out to be 7.96.
Broadly, the Ki is a measure of affinity in units of concentration, obtained from inhibition or displacement. A lower Ki goes with a stronger hold on the target. On to `CNC(=O)C(CCN1CCC(O)(c2ccc(Cl)cc2)CC1)(c1ccccc1)c1ccccc1`, for which the Ki in series [3] worked out at 9.9 nM; in series [4], 1 nM; in series [5], 2.4 nM; in series [6] it was 7 nM; on D(4) dopamine receptor, 1.1 nM; at Histamine H1 receptor it was 4.2 nM. In addition, the Ki was found to be 1.7 nM on Histamine H2 receptor; 9.3 nM on Histamine H3 receptor; 0.6 nM on Mu-type opioid receptor; 0.8 nM in [7]; 1.9 nM in series [8]; 6.2 nM in series [9]. Further, in [2], the pKa was found to be 7.2.

Values taken from ChEMBL document CHEMBL1140103, “Synthesis and evaluation of [N-methyl-11C]N-desmethyl-loperamide as a new and improved PET radiotracer for imaging P-gp function” (J Med Chem, 2008).
